{
  "source": "paper PMC3651166",
  "about": "“Differential Cytotoxic Activity of a Novel Palladium-Based Compound on Prostate Cell Lines, Primary Prostate Epithelial Cells and Prostate Stem Cells” (PLoS ONE, 2013)",
  "type_in_all_cases": "cell-based, human",
  "key": {"PCa Primary cells (Gl7)": {"tested_on": "PCa Primary cells (Gl7)", "assay": "MTS assay, primary cultures from prostate carcinoma Gleason 6/7", "source_text": "(§1) Primary prostate epithelial cells were isolated from human tissue samples. The samples were collected with ethical permission from York District Hospital (York, UK) and Castle Hill Hospital (Cottingham, UK). Benign prostatic hyperplasia (BPH) and prostate cancer samples were obtained from TURP (transurethral resection of the prostate), radical prostatectomy (laparoscopic and open) and cystectomy operations. All patients gave written consent for their tissue to be used for research and all patient samples were anonymised. Permission was approved by the Local Research Ethical Committees, associated with York District Hospital and Castle Hill Hospital. Permission was administered by the Yorkshire and Humber Research Ethics Committee.\n(§2) Prostate epithelial cells were cultured as previously described in stem cell media (SCM) consisting of keratinocyte serum-free media (KSFM) with bovine pituitary extract (BPE) and epidermal growth factor (EGF), glutamine, stem cell factor (SCF), granulocyte macrophage colony stimulating factor (GM-CSF), leukaemia inhibitory factor (LIF) and cholera toxin. Cells were grown with STO feeder cells (irradiated at 60 Gy) on collagen I-coated plates.\n(§3) This assay was performed for the initial screening of the effect of the Pd complex on the cell lines and the whole cell population of primary cultures. The CellTiter 96® Aqueous One Solution Cell Proliferation Assay kit (G3580, Promega, Madison, WI, USA) was used and the manufacturer’s instructions were followed. Briefly, after treating cells that were seeded at a density of 5,000 cells per well in a 96-well plate in triplicate for a desired period (24 h, 48 h, 72 h), 20 µL of reagent was added to each well. Following 2.5 h incubation at 37°C, the absorbance was read at 485 nm using a plate reader (PolarStar Optima, BMG Labtech, UK). Percent viability was calculated using the formula (% Viability = [(Sample Absorbance/Control Absorbance)]×100.\n(§4) MTS and ATP assays were performed in triplicate and data presented as the mean +/− standard deviation. IC50 values (Table 3 and Table 4) were calculated from graphs of transformed data following application of the nonlinear regression (curve fit) that represents the log(inhibitor) ‘v’ normalized response (GraphPad Prism software) (Supplementary Figures S1 and S2). For significance calculations, the Wilcoxon rank sum test was used (Sigmaplot). Flow cytometry analysis was carried out in triplicate and results are presented as an average with error bars indicating the standard error."}, "P4E6, PC-3, LNCaP": {"tested_on": "P4E6, PC-3, LNCaP", "assay": "MTS assay, average over cancer cell lines", "settings": "average of P4E6, PC-3, LNCaP", "procedure": "In this study, six different prostate cell lines (PNT1A, PNT2-C2, BPH-1, PC-3, LNCaP, P4E6) were used (Table 1). These cell lines encompass the spectrum of cellular differentiation status (basal, intermediate and luminal phenotypes), as well as the spectrum of normal, early cancer and late cancer. BPH-1 is derived from benign prostate hyperplasia (BPH), while PNT2-C2 and PNT1A are derived from normal prostate. PC-3, LNCaP and P4E6 are cancer cell lines. LNCaP, PNT2-C2, PNT1A were grown in RPMI medium with 10% FCS (foetal calf serum); PC-3 was grown in Ham’s F-12 medium with 7% FCS; BPH-1 was grown in RPMI medium with 5% FCS; P4E6 was grown in KSFM (Keratinocyte serum free medium) with 2% FCS. No antibiotics were used in any media. The cells were incubated at 37°C in a humidified atmosphere containing 5% CO2.\nas §3\nas §4, with “Flow cytometry analysis was carried out in triplicate and results are presented as an average with error bars indicating the standard error.” left out"}, "[1]": {"tested_on": "PCa Primary cells (Gl8/9)", "assay": "MTS assay, primary cultures from prostate carcinoma Gleason 8/9", "source_text": "as §1, §2, §3, §4"}, "γH2AX nuclear foci": {"tested_on": "γH2AX nuclear foci", "assay": "γH2AX immunofluorescence, DNA damage in primary cultures", "settings": "48 h", "procedure": "γH2AX staining: Cells were seeded onto 8-well collagen I-coated chamber slides. […] After blocking of non-specific binding with 2% BSA in PBS with 1% goat serum for 1 hour at RT, primary antibody (anti-phospho-histone H2A.X (Ser139), clone JBW301, Millipore, Cat no. 05–636) at 1∶1000 dilution was added in 3% BSA in PBS at 4°C overnight followed by three washes in 0.5% BSA in PBS with 0.175% Tween 20. Following incubation with secondary antibody (Goat anti-mouse Alexa Fluor 568, Invitrogen, Cat no. A-11004) at 1∶1000 dilution for 45 min in 3% BSA in PBS and three more washes in the same washing buffer, the slides were mounted using Vectashield with DAPI (Vector Laboratories, Cat no. H-1200). LC3-B staining: Cells were treated as above then fixed with 4% paraformaldehyde, followed by an incubation in 0.3% Triton X-100. After blocking with 10% normal goat serum, cells were incubated in anti-LC3B 1∶200 (Ab51520, abcam) diluted in 0.1% Triton X-100 in PBS. […]\nSince the mechanism of action of the Pd complex has not been fully characterized, the DNA-damaging effect was assessed. […] Nuclei with evidence of γH2AX nuclear foci, indicative of DNA damage, were counted on 10 randomly chosen fields at the highest (63x) magnification and the mean number of positively-stained nuclei was calculated. At least 100 cells per well were counted."}, "cleaved caspase-3": {"tested_on": "cleaved caspase-3", "assay": "Western blotting for apoptosis, primary cultures", "procedure": "Following drug treatment, cell lysates were harvested using Cytobuster Protein Extraction Reagent (71009, EMD Millipore, Darmstadt, Germany) with protease inhibitors (cOmplete, EDTA-free Protease Inhibitor Cocktail Tablets, Roche Applied Science, UK). 20 µg of protein extract were loaded on 12% SDS-PAGE gels and wet-transferred to a PVDF membrane. Antibodies used include: monoclonal anti-β-actin 1∶5000 (A5316, Sigma-Aldrich), anti-LC3B 1∶3000 (Ab51520, abcam), cleaved caspase-3 (Asp175) 1∶1000 (9661S, Cell Signaling Technology) and secondary antibodies were Rabbit anti-mouse-HRP 1∶10000 (P0260, Dako) and anti-rabbit IgG HRP-linked 1∶5000 (Cell Signaling Technology Inc. 7074S). Kaleidoscope protein marker was run on each gel (161-0324, Bio-Rad)."}, "LC3-II": {"tested_on": "LC3-II", "assay": "Western blotting and immunofluorescence for autophagy, primary cells", "settings": "all primary cells", "procedure": "γH2AX staining: Cells were seeded onto 8-well collagen I-coated chamber slides. […] After blocking of non-specific binding with 2% BSA in PBS with 1% goat serum for 1 hour at RT, primary antibody (anti-phospho-histone H2A.X (Ser139), clone JBW301, Millipore, Cat no. 05–636) at 1∶1000 dilution was added in 3% BSA in PBS at 4°C overnight followed by three washes in 0.5% BSA in PBS with 0.175% Tween 20. Following incubation with secondary antibody (Goat anti-mouse Alexa Fluor 568, Invitrogen, Cat no. A-11004) at 1∶1000 dilution for 45 min in 3% BSA in PBS and three more washes in the same washing buffer, the slides were mounted using Vectashield with DAPI (Vector Laboratories, Cat no. H-1200). LC3-B staining: Cells were treated as above then fixed with 4% paraformaldehyde, followed by an incubation in 0.3% Triton X-100. After blocking with 10% normal goat serum, cells were incubated in anti-LC3B 1∶200 (Ab51520, abcam) diluted in 0.1% Triton X-100 in PBS. Secondary antibody was Alexa Fluor 568 goat anti-rabbit IgG 1∶1000 (Invitrogen A11011)."}},
  "note": "Entries after “also recorded” stand apart in the source; their conditions may differ. Where two headings read alike, the source gives them in different places.",
  "data": [
    {"substance": "[PdCl(terpy)](sac)⋅2 H2O [Pd complex]", "values": [
      {"measurement": "IC50", "setting": "PCa Primary cells (Gl7); PCa primary cells (Gl7), sample 06211rb, 72 h, read-out: IC50", "value": 11.1, "unit": "µM"},
      {"measurement": "IC50", "setting": "PCa Primary cells (Gl7); PCa primary cells (Gl7), sample 06411lb, 72 h, read-out: IC50", "value": 5.2, "unit": "µM"},
      {"measurement": "IC50", "setting": "PCa Primary cells (Gl7); PCa primary cells (Gl7), sample 06411ra, 72 h, read-out: IC50", "value": 3.78, "unit": "µM"},
      {"measurement": "IC50", "setting": "PCa Primary cells (Gl7); PCa primary cells (Gl7), sample 06611lb, 72 h, read-out: IC50", "value": 13.1, "unit": "µM"},
      {"measurement": "IC50", "setting": "PCa Primary cells (Gl7); PCa primary cells (Gl7), sample 06711rb, 72 h, read-out: IC50", "value": 8.24, "unit": "µM"},
      {"measurement": "IC50", "setting": "PCa Primary cells (Gl7); PCa primary cells (Gl7), sample 07011la, 72 h, read-out: IC50", "value": 5.36, "unit": "µM"},
      {"measurement": "IC50", "setting": "PCa Primary cells (Gl7); PCa primary cells (Gl7), sample 07011lb, 72 h, read-out: IC50", "value": 6.03, "unit": "µM"},
      {"measurement": "IC50", "setting": "PCa Primary cells (Gl7); PCa primary cells (Gl7), sample 07311ra, 72 h, read-out: IC50", "value": 5.37, "unit": "µM"},
      {"measurement": "IC50", "setting": "PCa Primary cells (Gl7); PCa primary cells (Gl7), sample 22412, 72 h, read-out: IC50", "value": 6.3, "unit": "µM"},
      {"measurement": "IC50", "setting": "PCa Primary cells (Gl7); average of PCa primary cells (Gl7; Gleason 6/7), 72 h, read-out: IC50 AVERAGE", "value": 7.16, "unit": "µM"},
      {"measurement": "reduction of cell viability compared to etoposide", "setting": "PCa Primary cells (Gl7); malignant samples, both at 25 µM, 72 h, median values", "value": 10.66, "unit": "fold"},
      {"measurement": "IC50", "setting": "P4E6, PC-3, LNCaP; 24 h", "value": 75.4, "unit": "µM"},
      {"measurement": "IC50", "setting": "P4E6, PC-3, LNCaP; 48 h", "value": 23.6, "unit": "µM"},
      {"measurement": "IC50", "setting": "P4E6, PC-3, LNCaP; 72 h", "value": 11.5, "unit": "µM"},
      {"measurement": "IC50", "setting": "[1]; PCa primary cells (Gl8/9), sample 14912, 72 h, read-out: IC50", "value": 64.1, "unit": "µM"},
      {"measurement": "IC50", "setting": "[1]; PCa primary cells (Gl8/9), sample 16312, 72 h, read-out: IC50", "value": 70.4, "unit": "µM"},
      {"measurement": "IC50", "setting": "[1]; PCa primary cells (Gl8/9), sample 22912, 72 h, read-out: IC50", "value": 46.7, "unit": "µM"},
      {"measurement": "IC50", "setting": "[1]; average of PCa primary cells (Gl8/9), 72 h, read-out: IC50 AVERAGE", "value": 60.4, "unit": "µM"},
      {"measurement": "level of DNA damage (γH2AX nuclear foci)", "setting": "γH2AX nuclear foci; 3.12 µM", "value": "did not induce a significant level of DNA damage"},
      {"measurement": "level of DNA damage (γH2AX nuclear foci)", "setting": "γH2AX nuclear foci; etoposide and Pd complex at the same dose, primary cultures from prostate carcinoma", "value": "same level of DNA damage"},
      {"measurement": "cleaved caspase-3 (apoptosis)", "setting": "cleaved caspase-3; BPH primary sample", "value": "only a positive result with the BPH sample at a low dose"},
      {"measurement": "cleaved caspase-3 (apoptosis)", "setting": "cleaved caspase-3; primary cancer samples", "value": "no evidence of cleaved caspase-3; also recorded: No apoptosis was induced"},
      {"measurement": "LC3-II (autophagy)", "setting": "LC3-II", "value": "clear increase in LC3-II"}
    ]}
  ]
}
